{"source": "paper PMC9150106", "about": "“Phenyl Bis-Sulfonamide Keap1-Nrf2 Protein–Protein Interaction Inhibitors with an Alternative Binding Mode” (Journal of Medicinal Chemistry, 2022)", "key": {"[1]": {"system": "Hepa1c1c7 mouse hepatoma cells", "assay": "Cytotoxicity seen in the NQO1 assay", "assay_type": "cell-based"}, "[2]": {"system": "NQO1 enzymatic activity (Nrf2 transcriptional activity)", "assay": "NQO1 enzyme activity assay in Hepa1c1c7 cells", "assay_type": "cell-based, mouse", "conditions": "Hepa1c1c7, 24 h"}, "physchem": {"assay": "physchem", "conditions": "pH 7.4"}, "[3]": {"target": "Keap1 Kelch domain protein (Homo sapiens, UniProt Q14145)", "sequence (Q14145 321-609 limits assumed)": "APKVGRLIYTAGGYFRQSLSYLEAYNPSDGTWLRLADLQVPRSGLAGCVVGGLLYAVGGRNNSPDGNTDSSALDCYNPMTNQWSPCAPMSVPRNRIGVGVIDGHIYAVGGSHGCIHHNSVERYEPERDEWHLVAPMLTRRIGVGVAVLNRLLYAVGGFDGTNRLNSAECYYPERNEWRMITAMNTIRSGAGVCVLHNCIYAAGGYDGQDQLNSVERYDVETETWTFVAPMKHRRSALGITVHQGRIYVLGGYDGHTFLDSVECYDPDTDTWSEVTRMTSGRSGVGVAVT", "conditions": "10 μM compound, 5 μM Keap1; Ti Keap1 + vehicle 61.3 °C"}, "[4]": {"conditions": "PAMPA, pH 7.4"}, "in vitro": {"assay": "in vitro", "conditions": "human, Cytotoxicity IC50 concentration"}, "[5]": {"system": "ARPE19 retinal pigment epithelial cells", "conditions": "human"}}, "note": "Counter-ions that a name gives are not always drawn.", "data": [{"smiles": "COC(=O)[C@]12CCC(C)(C)C[C@H]1[C@H]1C(=O)C=C3[C@@]4(C)C=C(C#N)C(=O)C(C)(C)[C@@H]4CC[C@@]3(C)[C@]1(C)CC2", "note": "[CDDO-Me, bardoxolone methyl]", "values": [{"measurement": "Concentration above which cytotoxic in NQO1 assay", "setting": "[1]", "result": "higher than 1 μM"}, {"measurement": "NQO1 induction, concentration-response", "setting": "[2]", "result": "Dose-dependent induction"}]}, {"smiles": "COc1ccc(S(=O)(=O)N(CC(=O)O)c2ccc(N(CC(=O)O)S(=O)(=O)c3ccc(OC)cc3)c(OC)c2)cc1", "note": "[Compound 10, 2,2′-((2-Methoxy-1,4-phenylene)bis(((4-methoxyphenyl)sulfonyl)azanediyl))diacetic Acid]", "values": [{"measurement": "solubility", "setting": "physchem", "result": 271, "unit": "µg/mL"}]}, {"smiles": "COc1ccc(S(=O)(=O)N(CC(=O)O)c2ccc(N(CC(=O)O)S(=O)(=O)c3ccc(OC)cc3)c(OCc3ccccc3)c2)cc1", "note": "[Compound 11, 2,2′-((2-(Benzyloxy)-1,4-phenylene)bis(((4-methoxyphenyl)sulfonyl)azanediyl))diacetic Acid]", "values": [{"measurement": "solubility", "setting": "physchem", "result": 348, "unit": "µg/mL"}]}, {"smiles": "CCOc1cc(N(CC(=O)O)S(=O)(=O)c2ccc(OC)cc2)ccc1N(CC(=O)O)S(=O)(=O)c1ccc(OC)cc1", "note": "[Compound 31, 2,2′-((2-Ethoxy-1,4-phenylene)bis(((4-methoxyphenyl)sulfonyl)azanediyl))diacetic Acid]", "values": [{"measurement": "solubility", "setting": "physchem", "result": 337, "unit": "µg/mL"}]}, {"smiles": "CCCCOc1cc(N(CC(=O)O)S(=O)(=O)c2ccc(OC)cc2)ccc1N(CC(=O)O)S(=O)(=O)c1ccc(OC)cc1", "note": "[Compound 32, 2,2′-((2-Butoxy-1,4-phenylene)bis(((4-methoxyphenyl)sulfonyl)azanediyl))diacetic Acid]", "values": [{"measurement": "solubility", "setting": "physchem", "result": 362, "unit": "µg/mL"}]}, {"smiles": "COc1ccc(S(=O)(=O)N(CC(=O)O)c2ccc(N(CC(=O)O)S(=O)(=O)c3ccc(OC)cc3)c(Oc3ccccc3)c2)cc1", "note": "[Compound 33, 2,2′-((2-Phenoxy-1,4-phenylene)bis(((4-methoxyphenyl)sulfonyl)azanediyl))diacetic Acid]", "values": [{"measurement": "solubility", "setting": "physchem", "result": 363, "unit": "µg/mL"}]}, {"smiles": "COc1ccc(S(=O)(=O)N(CC(=O)O)c2ccc(N(CC(=O)O)S(=O)(=O)c3ccc(OC)cc3)c(-c3ccccc3)c2)cc1", "note": "[Compound 34, 2,2′-([1,1′-Biphenyl]-2,5-diylbis(((4-methoxyphenyl)sulfonyl)azanediyl))diacetic Acid]", "values": [{"measurement": "solubility", "setting": "physchem", "result": 298, "unit": "µg/mL"}, {"measurement": "DSF ΔTi", "setting": "[3]", "result": "0.1–1.2 °C"}]}, {"smiles": "CCCOc1cc(N(CC(=O)O)S(=O)(=O)c2ccc(OC)cc2)ccc1N(CC(=O)O)S(=O)(=O)c1ccc(OC)cc1", "note": "[Compound 36, 2,2′-((2-Propoxy-1,4-phenylene)bis(((4-methoxyphenyl)sulfonyl)azanediyl))diacetic Acid]", "values": [{"measurement": "solubility", "setting": "physchem", "result": 347, "unit": "µg/mL"}]}, {"smiles": "COc1ccc(S(=O)(=O)N(CC(=O)O)c2ccc(N(CC(=O)O)S(=O)(=O)c3ccc(OC)cc3)c(OC(C)C)c2)cc1", "note": "[Compound 37, 2,2′-((2-Isopropoxy-1,4-phenylene)bis(((4-methoxyphenyl)sulfonyl)azanediyl))diacetic Acid]", "values": [{"measurement": "logPe (permeability coefficient)", "setting": "[4]", "result": -4.74}, {"measurement": "solubility", "setting": "physchem", "result": 288, "unit": "µg/mL"}]}, {"smiles": "COc1ccc(S(=O)(=O)N(CC(=O)O)c2ccc(N(CC(=O)O)S(=O)(=O)c3ccc(OC)cc3)c(OCc3cccc(OC)c3)c2)cc1", "note": "[Compound 38, 2,2′-((2-((3-Methoxybenzyl)oxy)-1,4-phenylene)bis(((4-methoxyphenyl)sulfonyl)azanediyl))diacetic Acid]", "values": [{"measurement": "solubility", "setting": "physchem", "result": 379, "unit": "µg/mL"}]}, {"smiles": "COc1ccc(S(=O)(=O)N(CC(=O)O)c2ccc(N(CC(=O)O)S(=O)(=O)c3ccc(OC)cc3)c(O)c2)cc1", "note": "[Compound 39, 2,2′-((2-Hydroxy-1,4-phenylene)bis(((4-methoxyphenyl)sulfonyl)azanediyl))diacetic Acid]", "values": [{"measurement": "solubility", "setting": "physchem", "result": 343, "unit": "µg/mL"}]}, {"smiles": "COc1ccc(S(=O)(=O)N(CC(N)=O)c2ccc(N(CC(N)=O)S(=O)(=O)c3ccc(OC)cc3)c(OCc3ccccc3)c2)cc1", "note": "[Compound 40, 2,2′-((2-(Benzyloxy)-1,4-phenylene)bis(((4-methoxyphenyl)sulfonyl)azanediyl))diacetamide]", "values": [{"measurement": "solubility", "setting": "physchem", "result": "< 50", "unit": "µg/mL"}]}, {"smiles": "COc1ccc(S(=O)(=O)N(CC#N)c2ccc(N(CC#N)S(=O)(=O)c3ccc(OC)cc3)c(OCc3ccccc3)c2)cc1", "note": "[Compound 41, N,N′-[2-(Benzyloxy)-1,4-phenylene]bis[N-(cyanomethyl)-4-methoxybenzenesulfonamide]]", "values": [{"measurement": "logPe (permeability coefficient)", "setting": "[4]", "result": -4.19}, {"measurement": "solubility", "setting": "physchem", "result": "< 50", "unit": "µg/mL"}]}, {"smiles": "COc1ccc(S(=O)(=O)N(Cc2nnn[nH]2)c2ccc(N(Cc3nnn[nH]3)S(=O)(=O)c3ccc(OC)cc3)c(OCc3ccccc3)c2)cc1", "note": "[Compound 42, N-((1H-Tetrazol-5-yl)methyl)-N-(4-((N-((1H-tetrazol-5-yl)methyl)-4-methoxyphenyl)sulfonamido)-2-(benzyloxy)phenyl)-4-methoxybenzenesulfonamide]", "values": [{"measurement": "solubility", "setting": "physchem", "result": "< 50", "unit": "µg/mL"}]}, {"smiles": "COc1ccc(S(=O)(=O)N(Cc2nnn[nH]2)c2ccc(N(CC(=O)O)S(=O)(=O)c3ccc(OC)cc3)c(OCc3ccccc3)c2)cc1", "note": "[Compound 51, N-(4-((N-((1H-Tetrazol-5-yl)methyl)-4-methoxyphenyl)sulfonamido)-2-(benzyloxy)phenyl)-N-((4-methoxyphenyl)sulfonyl)glycine]", "values": [{"measurement": "solubility", "setting": "physchem", "result": 254, "unit": "µg/mL"}]}, {"smiles": "COc1ccc(S(=O)(=O)N(CC(=O)O)c2ccc(N(Cc3nnn[nH]3)S(=O)(=O)c3ccc(OC)cc3)c(OCc3ccccc3)c2)cc1", "note": "[Compound 52, N-(4-((N-((1H-Tetrazol-5-yl)methyl)-4-methoxyphenyl)sulfonamido)-3-(benzyloxy)phenyl)-N-((4-methoxyphenyl)sulfonyl)glycine]", "values": [{"measurement": "solubility", "setting": "physchem", "result": 256, "unit": "µg/mL"}]}, {"smiles": "COC(=O)/C=C/C(=O)OC", "note": "[DMF, dimethyl fumarate]", "values": [{"measurement": "NQO1 induction, concentration-response", "setting": "[2]", "result": "Dose-dependent induction"}]}, {"smiles": "C[S+]([O-])CCCCN=C=S", "note": "(centres unmarked) [Sulforaphane, sulforaphane]", "values": [{"measurement": "IC50", "setting": "in vitro", "result": "9.89 ± 2.91", "unit": "µM"}, {"measurement": "IC50", "setting": "[5]", "result": "~10", "unit": "µM"}]}]}
